In patent publication US20050080062A1, “Breast cancer treatment regimen” (priority 2003, published 2005):

System: primary breast cancer (hormone receptor positive or unknown)
Type: in vivo, postmenopausal women
Procedure: The study was a phase III randomized double-blind placebo-controlled study of letrozole in postmenopausal women with primary breast cancer completing five years of adjuvant tamoxifen. Patients were allocated to receive either letrozole 2.5 mg or placebo once daily by mouth for five years. Stratification factors at randomization were tumor receptor status (positive, unknown), lymph node status at diagnosis (negative, positive or unknown) and prior adjuvant chemotherapy (yes, no). The primary objective was disease-free survival (DFS). Secondary endpoints included overall survival (OS)(all cause mortality), contralateral breast cancer occurrence, quality of life and long term clinical and laboratory safety with special attention paid to cardiovascular morbidity and mortality and bone fractures. Adverse events were assessed by the NCI Common Toxicity Criteria version 2.0. Quality of life was assessed using the SF-36 and Menopause-Specific Quality of Life questionnaires. Companion studies assessed lipid profiles and changes in bone density.
Premenopausal women who were <50 years at the start of treatment with tamoxifen but who became amenorrheic during the course of adjuvant chemotherapy or during their treatment with tamoxifen and who remained so throughout the ensuing years of tamoxifen treatment and women with LH/FSH levels within post-menopausal limits were also eligible. Other eligibility included: histologically confirmed invasive breast cancer; tumor receptor positive or unknown (ER and/or PgR positive defined as a tumour receptor content of ≧10 fmol/mg protein, or receptor positive by ERICA or PgRICA); tamoxifen discontinued <3 months prior to enrolment; ECOG performance status 0,1 or 2 and a life expectancy of >5 years. […] Ineligibility included: concurrent use of investigational drugs; prior or concurrent malignancy other than skin cancer or carcinoma in situ of the cervix.
Concomitant medications prohibiting enrolment included: systemic hormone replacement therapy or SERMS (selective estrogen receptor modulators). Intermittent use of vaginal estrogens was permitted.
All study participants were randomised. Study medication began within 5 working days of randomisation. Clinical evaluation, routine blood work, toxicity evaluation and mammography (annually only) occurred six monthly in year one and annually thereafter. Serious toxicities and deaths were reported within 24 hours. Treatment was discontinued for: serious intercurrent illness, unacceptable toxicity, disease recurrence and patient request. SF-36 and Menqol questionnaires were completed by a subset of patients at each visit. Fasting lipid samples and bone mineral density evaluations occurred in sub-sets of participants on the bone and lipid companion studies. Recurrence of disease was defined histologically, cytologically or by clinical and/or radiologic suspicion and dated by the first time of detection. Management of recurrent cancer was at the discretion of the treating physician. Patients developing any second malignancy other than non-melanoma skin cancer or carcinoma in-situ of the cervix had to discontinue study therapy.
Interim analyses and other decisions regarding early termination of the study were referred to an independent Data and Safety Monitoring Committee (DSMC) consisting of clinicians, patient representatives and statisticians who reviewed the study twice a year.
Disease free survival, defined as the time from randomization to the time of recurrence of the primary disease (in the breast, chest wall, nodal or metastatic sites) or development of contralateral breast cancer, was the primary endpoint of the study. The sample size calculation assumed a 4 year disease free survival of 88% for patients on the placebo arm and a hazard ratio of 1.28, which represents 2.5% improvement in 4 year disease free survival from 88% to 90.5%. […]

[1] = among 207 events at first analysis

With N#Cc1ccc(C(c2ccc(C#N)cc2)n2cncn2)cc1 [letrozole] the “hazard ratio of patients on placebo versus those on letrozole for OS” value (95% confidence interval from 0.85 to 2.17, stratified two sided log-rank p 0.20) was 1.36, the “hazard ratio of placebo to letrozole for DFS” value (95% confidence interval from 1.33 to 2.34, stratified two sided log-rank p 0.000077) was 1.76 and the “effect on breast cancer recurrence and new primary tumors (in words)” value (after five years of treatment with tamoxifen) was “markedly reduced breast cancer recurrance and new primary tumors”. For the same compound, the “women who developed both contralateral breast cancer and metastatic disease” value [1] was 2 women, the “women who developed contralateral breast cancer only” value [1] was 14 women and the “women with metastatic disease recurrence only” value [1] was 59 women. For the same compound, the “patients coming off study because of progressive disease” value (at the time of the first analysis) was 44 patients, the “patients coming off study because of toxicity” value (female, human, in vivo) was 115 patients and the “toxicity profile (in words)” value (in vivo) was “very favorable toxicity profile”. The “4 year disease free survival (DFS)” value (letrozole 2.5 mg once daily by mouth after five years of adjuvant tamoxifen, first interim analysis, 95% confidence interval from 90% to 95%) was 93%, the “4 year overall survival (OS)” value (letrozole 2.5 mg once daily, first interim analysis, 95% confidence interval from 94% to 98%) was 96% and the “patients who had died at the time of data cut-off” value (of 72 deaths in total, 2593 randomized to letrozole) was 30 patients.
